Reference: patent US11440932B2, “Surfactant compounds-clips for extraction and stabilization in solution of membrane proteins” (CENTRE NATIONAL DE LA RECHERCHE SCIENTIFIQUE, priority 2017, dated 2022)

Target: T1, BmrA (Bacillus subtilis, UniProt O06967)
T1 construct: His tag; made in house; host or cells: E. coli C41(DE3)
Assay: Size exclusion chromatography of BmrA after detergent exchange
Description: The membrane fraction was extracted and purified in DDM by Ni-NTA metal affinity and Superdex 200 size exclusion, before being reloaded on Ni-NTA in order to exchange the DDM either with itself or with the compound 3.7c. Each pool was subsequently loaded onto a 3 ml Superdex S200 5/150 size exclusion column and eluted in the presence of 2 CMC of the same detergent, as indicated. The proteins are detected by absorbance at 280 nm.
The capacity of the compounds of the invention to maintain the membrane proteins in a native state was exemplified with the compound 3.7c of the invention, monitored by size exclusion chromatography and compared to the reference detergent DDM.
Procedure: BmrA was extracted in DDM and purified by Ni-NTA affinity chromatography as described in example 13, then loaded onto a Superdex 200 10/300 size exclusion column and eluted with 50 mM Hepes-HCl pH 8.0, 100 mM NaCl, 0.4 mM DDM (2×CMC). The fractions containing BmrA were pooled and separated into several aliquots (˜100 μg) kept at 4° C. One aliquot was subsequently reloaded onto an affinity column containing 1 ml of resin. The DDM was then exchanged against 10 volumes of Hepes-NaCl buffer containing either 2 CMC of DDM (control experiment) or 2 CMC of compound 3.7c (2 mM). BmrA was subsequently eluted in the respective buffers with 100 mM of imidazole added. The fractions containing the proteins were combined and concentrated on 50 kDa amicon (regenerated cellulose) to 50 μl, and were then deposited on a 3 ml Superdex 200 5/150 size exclusion column, equilibrated in 50 mM Hepes-HCl pH 8.0, 100 mM NaCl, and 2 CMC of DDM (0.4 mM) or 3.7c (2 mM). The elution was subsequently carried out at 0.3 ml/min in the respective buffers and the BmrA detected at 280 nm.

T1 sequence (O06967 whole entry): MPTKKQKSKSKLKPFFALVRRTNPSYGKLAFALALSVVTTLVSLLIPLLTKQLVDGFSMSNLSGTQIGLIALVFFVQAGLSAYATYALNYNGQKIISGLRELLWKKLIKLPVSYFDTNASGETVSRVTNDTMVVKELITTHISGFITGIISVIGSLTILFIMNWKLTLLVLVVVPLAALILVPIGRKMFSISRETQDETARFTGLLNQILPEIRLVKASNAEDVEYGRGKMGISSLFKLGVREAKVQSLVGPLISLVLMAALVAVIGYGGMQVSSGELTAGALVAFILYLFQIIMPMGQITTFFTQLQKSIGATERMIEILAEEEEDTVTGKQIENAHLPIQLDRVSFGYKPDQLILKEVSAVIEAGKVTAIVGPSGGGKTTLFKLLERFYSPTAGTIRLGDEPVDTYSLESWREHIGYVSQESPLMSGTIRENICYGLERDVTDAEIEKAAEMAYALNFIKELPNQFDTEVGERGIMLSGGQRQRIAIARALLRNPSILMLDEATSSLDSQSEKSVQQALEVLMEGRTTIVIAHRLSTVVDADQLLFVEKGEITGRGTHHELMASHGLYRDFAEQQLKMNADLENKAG

CCCCCCCCCCCCCC(=O)N[C@@H](COCc1cn(CCO[C@@H]2OC(CO)[C@@H](O)C(O)C2O)nn1)C(=O)N[C@H](CCC(=O)O)C(=O)O (some centres unmarked) [Compound 3.7c]
elution volume of BmrA (Superdex 200 5/150, 2 CMC of detergent, 0.3 ml/min): ~1.6 mL | oligomerization state of BmrA (after exchange of DDM, 2 CMC (2 mM)): conserves the native oligomerization state
